In data set [1] the test system is T.b. brucei bloodstream 427 strain parasites. Briefly: T.b. brucei 72 h REDOX-based (resazurin) viability assay. In kind it is cell-based, Trypanosoma brucei brucei. The conditions noted are these: for Emax / IC50: Trypanosoma brucei, 72 h. On the technique in general: Resazurin is reduced to fluorescent resorufin, in cell work by metabolically active cells.
The test system of data set [2] is T. cruzi Tulahuen strain parasites in 3T3 host cells. Briefly: T. cruzi 48 h image-based assay. Format: cell-based, Trypanosoma cruzi.
In data set [3] the test system is HEPG2 cells. Briefly: HEPG2 cytotoxicity assay. Format: cell-based, human. The following applies: Homo sapiens, HepG2, 72 h, read-out: IC50 (HEP).
In data set [4] the test system is T. cruzi. Kind of data set: T. cruzi temporal image-based assay, 24 h exposure. Format: cell-based, Trypanosoma cruzi. The following applies: Trypanosoma cruzi; for IC50: read-out: IC50 24 h T. cruzi.
Data set [5] relates to T. cruzi. Briefly: T. cruzi compound wash off assay (48 h with compound, wash off, 72 h without). Format: cell-based, Trypanosoma cruzi. The conditions noted are these: for Fold Change of IC50, wash off vs 48 h: IC50 from 48 h incubation to IC50 following wash off and further 72 h; for IC50 / Emax: Trypanosoma cruzi; for IC50: read-out: IC50 Wash Off.
For data set [6], the system named is T.b. brucei. Kind of data set: T.b. brucei temporal viability (time-kill) assay, 24 h, PrestoBlue. Format: cell-based, Trypanosoma brucei brucei. The conditions noted are these: Trypanosoma brucei; for IC50: read-out: IC50 24 h T.b. brucei. Here is the method:
Time-kill assays was undertaken as previously described, using the REDOX reagent PrestoBlue® [24]. […] Control compounds were added at the same concentrations at outlined for the resazurin-based assays.

In data set [7] the test system is T.b. brucei. Kind of data set: T.b. brucei temporal viability (time-kill) assay, 48 h, PrestoBlue. In kind it is cell-based, Trypanosoma brucei brucei. The conditions noted are these: Trypanosoma brucei; for IC50: read-out: IC50 48 h T.b. brucei.
Data set [8] concerns T.b. rhodesiense STIB900. Briefly: T.b. rhodesiense STIB900 assay, 72 h. In kind it is cell-based. The conditions noted are these: Trypanosoma brucei; STIB900, 72 h; unit inferred; read-out: IC50 T. bR (T.b. rhodesiense).
Data set [9] deals with T.b. gambiense STIB930. Briefly: T.b. gambiense STIB930 assay, 72 h. The following applies: Trypanosoma brucei, unit inferred, read-out: IC50 T. Bg STIB930 (T.b. gambiense). In kind it is cell-based.
The test system of data set [10] is T. cruzi and T.b. brucei. Kind of data set: Speed of action and cidality classification from temporal and wash off assays. The conditions noted are these: for Speed of Action (FA/SA): TC = T. cruzi, TBB = T.b. brucei; for Speed of Action (Table 5): prioritised compounds, Fast/Slow. Format: cell-based, Trypanosoma cruzi, Trypanosoma brucei brucei.
For data set [11], the target named is T. cruzi recombinant CYP51 (TcCYP51) (Trypanosoma cruzi, UniProt Q7Z1V1). Kind of data set: biochemical.
Experimental: The inhibitory properties of compounds against T. cruzi recombinant CYP51 (TcCYP51) was determined using an in vitro assay as previously described [33, 41]. Compounds which inhibited T. cruzi in an image-based assay were tested against TcCYP51 in log concentrations (100, 33, 10, 3.3, 1.0, 0.33, 0.1 and 0 µM), with one replicate per dose, as previously described [41]. The control compound posaconazole was incubated at the same concentrations as the test compounds, over two replicates.
Of the fast-acting compounds, if there was more than one compound with activity against T. cruzi, one representative compound from each chemical class was selected. […] Slow-acting compounds were also tested for activity against TcCYP51. The criteria defining a compound with TcCYP51 activity required that the IC50 value was within a log difference to posaconazole, as previously reported [33].
The conditions of data set [12]: cited from earlier work.
Data set [13] concerns CYP1A2. On the set-up: method as in earlier work. The conditions noted are these: Pathogen Box in vitro DMPK data; ref [10]; cited from earlier work.
Where [14] appears, read: selectivity index in relation to 3T3 host cells; highest dose 3T3 73 µM.
Setting [15] is: selectivity index in relation to HEK293 cells.
Where [16] appears, read: selectivity index in relation to HEPG2 cells.
The mark [17] stands for this setting: Trypanosoma cruzi, TULAHUEN, 48 h; read-out: Emax % (T. cruzi) (converted).
Where [18] appears, read: Trypanosoma cruzi, TULAHUEN, 48 h; read-out: IC50 (T. cruzi).
The mark [19] stands for this setting: NA = not active at given concentration.
Where [20] appears, read: T. cruzi, 48 h incubation, wash off, further 72 h.
[21] abbreviates: read-out: Emax 24 h T.b. brucei (converted).
Setting [22] is: read-out: Emax 48 h T.b. brucei (converted).

Read-outs that look alike come from different tables or passages of the source.

Sequence of T. cruzi recombinant CYP51 (TcCYP51) (Q7Z1V1 whole entry): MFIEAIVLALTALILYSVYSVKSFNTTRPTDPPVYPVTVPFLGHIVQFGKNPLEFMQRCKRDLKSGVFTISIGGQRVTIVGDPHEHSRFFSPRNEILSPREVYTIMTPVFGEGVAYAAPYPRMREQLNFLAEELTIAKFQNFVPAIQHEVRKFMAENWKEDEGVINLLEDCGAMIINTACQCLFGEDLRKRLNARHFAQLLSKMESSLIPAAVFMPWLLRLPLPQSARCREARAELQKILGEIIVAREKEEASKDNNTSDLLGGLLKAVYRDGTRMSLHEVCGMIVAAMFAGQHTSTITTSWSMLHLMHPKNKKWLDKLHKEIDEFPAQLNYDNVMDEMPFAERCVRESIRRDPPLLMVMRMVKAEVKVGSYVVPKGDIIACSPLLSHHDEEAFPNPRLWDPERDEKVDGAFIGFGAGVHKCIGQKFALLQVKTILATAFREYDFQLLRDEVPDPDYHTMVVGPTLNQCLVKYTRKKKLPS

The term IC50 denotes the concentration at which inhibition is half-maximal. For the compound `Nc1nc2ccc(-c3cncc(Oc4ccc(F)cc4)c3)cc2[nH]1` [MMV 687248], in data set [1], the “SI (T.b. brucei) (HEP)” value was 38. The “SI (T.b. brucei) HEK” value in data set [1] was more than 155. Also, the Emax in data set [1] is 99%; in [2] (Trypanosoma cruzi, TULAHUEN, 48 h, read-out: Emax % (T. cruzi)), 99%; in data set [6] (read-out: Emax 24 h T.b. brucei), 87%; in [7] (read-out: Emax 48 h T.b. brucei), 99%. The IC50 in data set [1] was found to be 510 ± 45 nM; in data set [2] (Trypanosoma cruzi, TULAHUEN, 48 h, read-out: IC50 (T. cruzi)), 1500 ± 130 nM; in data set [3], 19600 nM; in data set [4] it was 4100 ± 1300 nM; in data set [5], 2000 ± 39 nM; in data set [6] it was 930 ± 47 nM. Moreover, the 50% inhibitory concentration (IC50) turned out to be 200 ± 32 nM in data set [7], 1200 ± 540 nM in data set [8] and 240 ± 22 nM in [9]. Besides, the “SI (T. cruzi) 3T3” value in data set [2] (setting [14]) is recorded as more than 49. The “SI (T. cruzi) HEK” value in data set [2] (setting [15]) is recorded as 53. In addition, the “SI (T. cruzi) (HEP)” value in [2] (setting [16]) is reported as 13. Further, the “Fold Change of IC50, wash off vs 48 h” value in [5] (T. cruzi) stood at 1.3 fold. For the same compound, in data set [10], the “Speed of Action (FA/SA)” value was “FA (Fast-acting (FA) = IC50 value can be determined following 24 h incubation, <10-fold difference in the IC50 value from 24 to 72 h)”. Further, the “Speed of Action (Table 5)” value in [10] is recorded as “Fast”.

Take `CCc1ccccc1-n1c(C)cn2c3c(=O)n(C(C(=O)OC)C(C)C)c(=O)n(C)c3nc12` (stereo not shown) [MMV 688550]: the Emax is 99% in data set [1]; 100% in data set [2] (setting [17]); 80% in data set [4]; 100% in [6] (setting [21]); 99% in [7] (setting [22]). The IC50 is 25 ± 0.83 nM in data set [1]; 530 ± 110 nM in [2] (setting [18]); 900 ± 170 nM in data set [4] (setting [19]); 310 ± 67 nM in [5] (setting [20]); 22 ± 14 nM in [6]; 21 ± 0.53 nM in data set [7]. The IC50 in data set [8] is 80 ± 1.4 nM; in data set [9] it was less than 1 nM. The “SI (T.b. brucei) HEK” value in [1] (setting [15]) was >3160 (>3160). Besides, the “SI (T.b. brucei) (HEP)” value in data set [1] (setting [16]) is listed as >3160 (>3160). Moreover, the “SI (T. cruzi) 3T3” value in data set [2] (setting [14]) is more than 138. Moreover, in [2] (setting [15]), the “SI (T. cruzi) HEK” value is listed as >149 (>149). Further, the “SI (T. cruzi) (HEP)” value in [2] (setting [16]) is reported as >149 (>149). Besides, the “Fold Change of IC50, wash off vs 48 h” value in data set [5] (T. cruzi) is 0.58 fold. Also, in [11] (criterion: IC50 within a log difference to posaconazole), the “Inhibition of TcCYP51 (in words)” value was “did not display activity”. The “Speed of Action (FA/SA)” value in data set [10] is “FA (Fast-acting (FA) = IC50 value can be determined following 24 h incubation, <10-fold difference in the IC50 value from 24 to 72 h)”. The “Speed of Action (Table 5)” value in data set [10] is given as “Fast”.

Take `O=C(NCCc1ccn(-c2ccccc2)n1)C1CCCCC1` [MMV 688795]: the Emax in [1] was 99%; in [2] (setting [17]), 100%; in data set [4], 89%; in data set [6] (setting [21]), 99%; in data set [7] (setting [22]), 99%. The IC50 stood at 130 ± 52 nM in [1]; 580 ± 50.3 nM in data set [2] (setting [18]); 1300 ± 120 nM in data set [4] (setting [19]); 380 ± 56 nM in [5] (setting [20]); 290 ± 4.7 nM in [6]; 106 ± 20 nM in data set [7]. Moreover, the results for the IC50 in data set [8] and in data set [9] were 79 ± 0.7 nM and 630 ± 1.4 nM, respectively. The “SI (T.b. brucei) HEK” value in [1] (setting [15]) is >608 (>608). In data set [1] (setting [16]), the “SI (T.b. brucei) (HEP)” value is recorded as >608 (>608). Moreover, the “SI (T. cruzi) 3T3” value in data set [2] (setting [14]) is recorded as more than 126. Moreover, the “SI (T. cruzi) HEK” value in data set [2] (setting [15]) was >136 (>136). The “SI (T. cruzi) (HEP)” value in data set [2] (setting [16]) was >136 (>136). Moreover, in [5] (T. cruzi), the “Fold Change of IC50, wash off vs 48 h” value was 0.74 fold. Also, in data set [10], the “Speed of Action (FA/SA)” value was “FA (Fast-acting (FA) = IC50 value can be determined following 24 h incubation, <10-fold difference in the IC50 value from 24 to 72 h)”. The “Speed of Action (Table 5)” value in [10] is reported as “Fast”.

On to `O=C(NCc1nnc2n1CCCCC2)c1ccc(-c2ccc(F)cc2)o1` [MMV 688796], for which the Emax in data set [1] is 99%; in [2] (setting [17]), 100%; in data set [4], 91%; in data set [5] (setting [20]), 98%; in data set [6] (setting [21]), 82%; in data set [7] (setting [22]), 100%. Also, the IC50 in data set [1] was 120 ± 23 nM; in data set [2] (setting [18]) it was 1200 ± 400 nM; in data set [4] (setting [19]), 2400 ± 1300 nM; in [5] (setting [20]), 1100 ± 480 nM; in data set [6], 240 ± 53 nM; in data set [7], 97 ± 4.8 nM. The IC50 in data set [8] worked out at 46 ± 31 nM; in data set [9] it was 160 ± 11 nM. Also, the “SI (T.b. brucei) HEK” value in data set [1] (setting [15]) is recorded as >658 (>658). The “SI (T.b. brucei) (HEP)” value in data set [1] (setting [16]) was >658 (>658). For the same compound, in data set [2] (setting [14]), the “SI (T. cruzi) 3T3” value was more than 61. Also, in data set [2] (setting [15]), the “SI (T. cruzi) HEK” value is listed as >66 (>66). Also, in data set [2] (setting [16]), the “SI (T. cruzi) (HEP)” value is >66 (>66). In data set [5] (T. cruzi), the “Fold Change of IC50, wash off vs 48 h” value was 1.1 fold. In addition, in data set [10], the “Speed of Action (FA/SA)” value is recorded as “FA (Fast-acting (FA) = IC50 value can be determined following 24 h incubation, <10-fold difference in the IC50 value from 24 to 72 h)”. In addition, the “Speed of Action (Table 5)” value in data set [10] is listed as “Fast”. For the same compound, the Half-life in data set [12] (dosed orally in mice, ref [51]) is listed as 3.9 h.

Turning to `COc1ccc(S(=O)(=O)Nc2ccc(CN3CCN(C(=O)c4cccc(C#N)c4)CC3)cc2)cc1` [MMV 689029], the Emax in [1] is 99%; in data set [2] (setting [17]) it was 100%; in [4] it was 90%; in [5] (setting [20]), 98%; in [6] (setting [21]) it was 89%; in [7] (setting [22]), 100%. Also, the IC50 in data set [1] is 420 ± 53 nM; in data set [2] (setting [18]) it was 1200 ± 67 nM; in data set [4] (setting [19]), 3700 ± 260 nM; in data set [5] (setting [20]) it was 880 ± 56 nM; in [6] it was 980 ± 340 nM; in [7], 400 ± 23 nM. Also, the IC50 in data set [8] was 630 ± 110 nM; in data set [9] it was 400 ± 120 nM; in data set [11] (top concentration 100 µM) it was more than 100000 nM. In data set [1] (setting [15]), the “SI (T.b. brucei) HEK” value is >188 (>188). In addition, the “SI (T.b. brucei) (HEP)” value in data set [1] (setting [16]) was >188 (>188). Moreover, in data set [2] (setting [14]), the “SI (T. cruzi) 3T3” value is more than 61. In data set [2] (setting [15]), the “SI (T. cruzi) HEK” value is given as >66 (>66). Also, the “SI (T. cruzi) (HEP)” value in [2] (setting [16]) was >66 (>66). Also, the “Fold Change of IC50, wash off vs 48 h” value in data set [5] (T. cruzi) amounted to 0.73 fold. For the same compound, the “Speed of Action (FA/SA)” value in data set [10] is listed as “FA (Fast-acting (FA) = IC50 value can be determined following 24 h incubation, <10-fold difference in the IC50 value from 24 to 72 h)”. For the same compound, in [10], the “Speed of Action (Table 5)” value is recorded as “Fast”. In addition, the Half-life in data set [12] (in vivo, species not stated, ref [10]) is 2.4 h. Besides, the CYP1A2 induction result in data set [13] was “induced CYP1A2 activity”.

(Values after publication PMC9317670, “Temporal and Wash-Out Studies Identify Medicines for Malaria Venture Pathogen Box Compounds with Fast-Acting Activity against Both Trypanosoma cruzi and Trypanosoma brucei” (Microorganisms, 2022).)
